Experiments:
Assay in all cases: Cytotoxicity assay for payloads (MTS cell viability)
Type in all cases: cell-based
HL60 (leukemia) = settings: Homo sapiens, HL-60, 96 h, HL60 cells, incubated four days, read-out: Free Payload Potencies HL60 (IC50)
Description: (§1) Cancer cell lines were obtained from ATCC (Manassas, VA). N87 (human gastric carcinoma derived from metastatic liver site). HL60 (leukemia) and MDA-MB-361 DYT2 (human breast carcinoma MDA-MB-361) were grown in RPMI 1640 media . All media were supplemented with 10% fetal bovine serum, 1% sodium pyruvate, and 1% L-glutamine (Invitrogen, Grand Island, NY). Human umbilical vein endothelial cells (HUVEC) were obtained from Lonza (Allendale, NJ) and maintained in EGM2 media supplemented with EGM-2 SingleQuots (Lonza # CC-4176). All cells were maintained in a humidified incubator (37°C, 5% CO2).
(§2) Cells in 100 µl medium were cultured in a 96-well plate. Cancer cell lines treated with the indicated compounds by adding 50 µl of 3X stocks in duplicate at 10 concentrations. Cells were incubated with compounds for four days, then 30 µl of CellTiter® 96 AQueous One MTS Solution (Promega Cat # G3582) was added to the cells, incubated 1.5 hr at 37°C, then absorbance measured at 490 nm on a Victor plate reader (Perkin Elmer, Waltham, MA). Relative cell viability was determined as a percentage of untreated control wells. IC50 values were calculated using four parameter logistic model #203 with XLfit v4.2 (IDBS, Guildford, Surry, UK).

[1] = system: MDA-MB-361 DYT2 (human breast carcinoma MDA-MB-361); settings: 96 h, MDA-MB-361 DYT2 cells, incubated four days, read-out: Free Payload Potencies DYT2 (IC50)
Description: as §1, §2

[2] = system: N87 (human gastric carcinoma derived from metastatic liver site); settings: 96 h, N87 cells, incubated four days, read-out: Free Payload Potencies N87 (IC50)
Description: as §1, §2

SMILES | IC50 (HL60 (leukemia)) [nM] | IC50 [1] [nM] | IC50 [2] [nM]
Cc1csc2c(O)cc3c(c12)[C@H](CCl)CN3C(=O)CCCC(=O)N1C[C@@H](CCl)c2c1cc(O[C@@H]1O[C@H](C(=O)O)[C@@H](O)[C@H](O)[C@H]1O)c1scc(C)c21 [Compound 57, (8S)-8-(chloromethyl)-6-{5-[(8S)-8-(chloromethyl)-4-hydroxy-1-methyl-7,8-dihydro-6H-thieno[3,2-e]indol-6-yl]-5-oxopentanoyl}-1-methyl-7,8-dihydro-6H-thieno[3,2-e]indol-4-yl beta-D-glucopyranosiduronic acid] | 0.873 | 37.6 | 11
CC(=O)Oc1cc2c(c3c(C)csc13)[C@@H](CCl)CN2C(=O)CCCC(=O)N1C[C@H](CCl)c2c1cc(OC(C)=O)c1scc(C)c21 [Compound 25, (8R,8'R)-glutaroylbis(8-(chloromethyl)-1-methyl-7,8-dihydro-6H-thieno[3,2-e]indole-6,4-diyl) diacetate] |  | > 100 | 41.6
Cc1csc2c(O)cc3c(c12)[C@H](CCl)CN3C(=O)CCCC(=O)N1C[C@@H](CCl)c2c1cc(OP(=O)(O)O)c1scc(C)c21 [Compound 61, (8S)-8-(chloromethyl)-6-{5-[(8S)-8-(chloromethyl)-4-hydroxy-1-methyl-7,8-dihydro-6H-thieno[3,2-e]indol-6-yl]-5-oxopentanoyl}-1-methyl-7,8-dihydro-6H-thieno[3,2-e]indol-4-yl dihydrogen phosphate] | 0.806 | 28.6 | 13.6
CC(=O)Oc1cc2c(c3c(C)csc13)[C@H](CCl)CN2C(=O)C12CC(C(=O)N3C[C@@H](CCl)c4c3cc(OC(C)=O)c3scc(C)c43)(C1)C2 [Compound 7, (8S,8'S)-(bicyclo[1.1.1]pentane-1,3-dicarbonyl)bis(8-(chloromethyl)-1-methyl-7,8-dihydro-6H-thieno[3,2-e]indole-6,4-diyl) diacetate] | < 0.005 | 0.185 | 0.022
CC(=O)Oc1cc2c(c3c(C)csc13)[C@H](CCl)CN2C(=O)CCCC(=O)N1C[C@@H](CCl)c2c1cc(OC(C)=O)c1scc(C)c21 [Compound 24, (8S,8'S)-glutaroylbis(8-(chloromethyl)-1-methyl-7,8-dihydro-6H-thieno[3,2-e]indole-6,4-diyl) diacetate] | < 0.005 | 0.171 | 0.024
CC(=O)Oc1cc2c(c3c(C)csc13)[C@@H](CCl)CN2C(=O)C12CC(C(=O)N3C[C@H](CCl)c4c3cc(OC(C)=O)c3scc(C)c43)(C1)C2 [Compound 12, (8R,8'R)-(bicyclo[1.1.1]pentane-1,3-dicarbonyl)bis(8-(chloromethyl)-1-methyl-7,8-dihydro-6H-thieno[3,2-e]indole-6,4-diyl) diacetate] | 0.18 | 5.08 | 2.26
CC(=O)Oc1cc2c(c3sc(C)cc13)[C@H](CCl)CN2C(=O)C12CC(C(=O)N3C[C@@H](CCl)c4c3cc(OC(C)=O)c3cc(C)sc43)(C1)C2 [Compound 17, bicyclo[1.1.1]pentane-1,3-diylbis[carbonyl(8S)-8-(chloromethyl)-2-methyl-7,8-dihydro-6H-thieno[2,3-e]indole-6,4-diyl] diacetate] | 0.084 | 6.06 | 1.3

Source: patent EP3271365B1, “BI[…] AGENTS CONTAINING THE CTI PHARMACOPHORE” (Pfizer Inc., priority 2015, dated 2016)
